In this assay the test system is dexamethasone induced triglyceride synthesis in human subcutaneous pre-adipocytes. Put plainly: Inhibition of long term dexamethasone induced triglyceride synthesis. Type of assay: cell-based. To be noted: single extracts 1 μg/ml, combined formulation 10 μg/ml, vs DMSO control. As to the method: The study was conducted at a reputed US Contract Research Lab which has access to pooled human subcutaneous pre-adipocytes (female, average age 54.2, average BMI 27.9) from twelve different donors. These were cultured in 96-well plates in DMEM/Ham's F-12 (1:1, v/v) with 10% fetal bovine serum and differentiated according to a standard protocol. The next day, the pre-adipocyte medium was removed and replaced with differentiation medium; namely insulin, dexamethasone and IBMX (3-isobutyl-1-methylxanthine, a competitive nonselective phosphodiesterase inhibitor and a nonselective adenosine receptor antagonist. The media containing the formulations were prepared by different methods (individually and combined). After seven days, 90 μl of differentiation medium was removed and replaced with 120 μl of adipocyte medium (containing dexamethasone and insulin in DMEM). After seven more days, cells were assayed for cytotoxicity and cellular triglyceride content.
Cellular triglycerides were measured by a two-step procedure. […] After 15 minutes, the optical density of each well of the new plate was measured at 540 nm. The absorbance values of the unknown samples were converted to glycerol concentrations by correlation to the glycerol concentration standards using the generated linear regression equation.

Turning to TNF-a, the “inhibition of TG synthesis” value is “significantly reduced TG synthesis”.

(Values after patent US20140363526A1, “SYNERGISTIC FORMULATION OF PLANT EXTRACTS FOR HEPATIC AND ADRENAL DISORDERS” (Bioved Pharmaceuticals, Inc., priority 2013, published 2014).)
